Converted amounts (≈) assume the structure as drawn.
Columns and labels:
[1] = Solubility of micronized Compound 2 in McIlvain's citrate-phosphate buffer; type: physicochemical; settings: aqueous buffer, thermodynamic from solid, citrate-phosphate buffer pH 2.2 to 8.64, 30 hours, read-out: Solubility of micronized formulation
Protocol: Solubility of a micronized formulation of Compound 2 was further evaluated using McIlvain's citrate-phosphate buffer recipes (0.2M Na2HPO4 and 0.1M citric acid) from pH 2.2 to 8.64. Samples were agitated for 30 hours and sampled, centrifuged, and analyzed by UPLC.

[2] = Solubility in fasted-state simulated intestinal fluid (FaSSIF); type: physicochemical; settings: thermodynamic from solid, pH 6.5, 25° C., read-out: Solubility in the FaSSIF model
Protocol: Solubility was also determined in a fasted-state simulated intestinal fluid (FaSSIF) assay. Briefly, Compound 2 was added to the FaSSIF medium (bile salts, NaOH (0.420 g), NaH2PO4 (3.438 g), NaCl (6.186 g), pH to 6.5, at 25° C., and brought to a 1 L volume) agitated for 30 hours and sampled, centrifuged, and analyzed by UPLC. Solubility in the FaSSIF model was determined to be 1.19 mg/ml.

[3] = molecular target: dogTRPA1 (Canis lupus familiaris, UniProt A0A8I3Q1Q7); experiment: TRPA1 IC50, whole-cell patch clamp; type: cell-based, Dog; settings: dogTRPA1, 10 μM AITC; read-out: IC50 Inward current
Chain of dogTRPA1 (A0A8I3Q1Q7 1-1118): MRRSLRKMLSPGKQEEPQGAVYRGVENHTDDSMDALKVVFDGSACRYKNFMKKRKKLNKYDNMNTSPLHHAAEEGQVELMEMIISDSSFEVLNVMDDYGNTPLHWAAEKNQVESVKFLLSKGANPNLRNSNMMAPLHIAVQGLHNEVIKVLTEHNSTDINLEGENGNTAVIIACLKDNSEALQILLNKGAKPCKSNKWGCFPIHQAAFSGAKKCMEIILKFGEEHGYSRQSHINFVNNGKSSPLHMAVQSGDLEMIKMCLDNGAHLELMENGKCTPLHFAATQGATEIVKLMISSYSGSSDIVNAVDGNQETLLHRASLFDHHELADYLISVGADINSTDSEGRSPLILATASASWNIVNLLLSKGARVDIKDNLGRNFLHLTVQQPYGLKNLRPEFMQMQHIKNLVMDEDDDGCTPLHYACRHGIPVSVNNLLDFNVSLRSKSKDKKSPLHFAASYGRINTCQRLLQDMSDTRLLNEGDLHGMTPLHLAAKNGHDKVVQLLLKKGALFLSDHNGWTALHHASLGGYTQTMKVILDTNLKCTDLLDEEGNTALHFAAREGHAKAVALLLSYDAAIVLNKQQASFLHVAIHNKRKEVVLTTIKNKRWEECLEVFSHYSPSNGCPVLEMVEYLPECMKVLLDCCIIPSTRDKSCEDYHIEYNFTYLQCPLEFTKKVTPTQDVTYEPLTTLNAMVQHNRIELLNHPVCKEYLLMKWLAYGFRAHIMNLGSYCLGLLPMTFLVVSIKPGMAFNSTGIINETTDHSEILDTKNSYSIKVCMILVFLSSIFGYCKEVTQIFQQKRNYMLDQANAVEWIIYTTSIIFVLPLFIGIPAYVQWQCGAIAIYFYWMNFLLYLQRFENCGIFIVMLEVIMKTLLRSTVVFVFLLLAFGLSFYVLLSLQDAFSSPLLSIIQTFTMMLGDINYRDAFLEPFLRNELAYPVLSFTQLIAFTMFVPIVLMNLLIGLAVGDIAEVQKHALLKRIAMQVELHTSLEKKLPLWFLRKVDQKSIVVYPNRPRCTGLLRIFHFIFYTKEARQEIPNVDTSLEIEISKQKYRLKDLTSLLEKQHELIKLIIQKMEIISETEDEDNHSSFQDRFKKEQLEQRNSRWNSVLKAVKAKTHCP
Description: The change in IC50 block in the presence of albumin and plasma was also studied. It is assumed that the pharmacological effect of a drug correlates to unbound plasma levels, which is known as the “free drug hypothesis”. The aim of this study was to estimate the change in IC50 for block of human TRPA1 (hTRPA1) by Compound 2 in the presence of physiologically relevant concentrations of albumin and plasma (see Table 7). The human form of TRPA1 was used to assess protein binding in all species due to technical issues. The whole-cell patch clamp technique as described in del Camino, D. et al. J Neurosci 74 (2010) 30:15165 was employed to measure current through hTRPA1 upon activation by allyl isothiocyanate (AITC), the active ingredient in mustard oil, in the presence of 1% (w/v) serum albumin or 25% (v/v) plasma from various species including human plasma (hPlasma), human serum albumin (HSA), rat plasma (rPlasma), rat serum albumin (RSA), dog plasma, and sheep serum albumin (sheepSA). […]
Data for TRPA1 inhibition was obtained by this method for the indicated compounds of Formula (I), with the relevant data included in Table 14 below. All currents were recorded in whole-cell configuration using EPC-9 and EPC-10 amplifiers and Patchmaster software (HEKA). […]

[4] = molecular target: sheepTRPA1 (Ovis aries, UniProt A0ACI6QTQ3); experiment: TRPA1 IC50, whole-cell patch clamp; type: cell-based, Sheep; settings: sheepTRPA1, 20 μM AITC; read-out: IC50 Inward current
Chain of sheepTRPA1 (A0ACI6QTQ3 entry or part of it): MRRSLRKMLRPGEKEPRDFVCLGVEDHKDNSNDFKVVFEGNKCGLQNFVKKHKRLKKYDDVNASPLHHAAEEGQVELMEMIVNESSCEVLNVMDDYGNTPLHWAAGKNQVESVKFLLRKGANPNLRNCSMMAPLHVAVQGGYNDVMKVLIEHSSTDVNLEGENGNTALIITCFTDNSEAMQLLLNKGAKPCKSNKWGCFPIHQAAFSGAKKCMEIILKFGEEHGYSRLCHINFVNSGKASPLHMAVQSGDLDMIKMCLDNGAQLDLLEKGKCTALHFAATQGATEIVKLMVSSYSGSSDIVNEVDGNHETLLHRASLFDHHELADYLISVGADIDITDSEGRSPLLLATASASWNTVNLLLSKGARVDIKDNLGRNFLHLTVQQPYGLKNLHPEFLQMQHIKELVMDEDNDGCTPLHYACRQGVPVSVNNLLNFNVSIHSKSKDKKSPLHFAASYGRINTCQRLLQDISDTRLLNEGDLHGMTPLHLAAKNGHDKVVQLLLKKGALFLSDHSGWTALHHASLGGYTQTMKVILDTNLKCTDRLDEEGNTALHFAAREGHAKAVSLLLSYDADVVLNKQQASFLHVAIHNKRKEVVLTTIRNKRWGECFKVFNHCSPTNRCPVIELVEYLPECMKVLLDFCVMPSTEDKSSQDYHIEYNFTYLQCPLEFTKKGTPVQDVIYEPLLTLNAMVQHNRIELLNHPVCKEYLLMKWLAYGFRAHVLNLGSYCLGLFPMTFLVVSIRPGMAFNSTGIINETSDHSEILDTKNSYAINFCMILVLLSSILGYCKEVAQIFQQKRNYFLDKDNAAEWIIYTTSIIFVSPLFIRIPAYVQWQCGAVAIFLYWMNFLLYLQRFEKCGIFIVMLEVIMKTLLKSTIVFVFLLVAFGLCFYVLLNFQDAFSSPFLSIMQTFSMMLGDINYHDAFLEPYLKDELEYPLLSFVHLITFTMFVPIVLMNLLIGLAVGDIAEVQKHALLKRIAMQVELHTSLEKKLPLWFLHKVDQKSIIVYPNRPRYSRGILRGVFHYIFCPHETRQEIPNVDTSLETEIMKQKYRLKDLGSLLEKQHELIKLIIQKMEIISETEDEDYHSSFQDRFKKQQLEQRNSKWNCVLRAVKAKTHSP

[5] = PK comparison of capsule and suspension formulations; settings: monkey, in vivo, po, 250 mg, monkeys
Protocol: Another study was conducted to compare the PK parameters of capsule and suspension formulations of Compound 2. All monkeys were dosed with 250 mg Compound 2. Two groups were dosed with the capsule formulation: one fasted and one allowed food ad libitum. The animals that received the suspension formulation were dosed using a nasogastric tube and were fasted. […] When the PK profile of the capsule formulation was compared in both fasted and fed monkeys, the bioavailability of Compound 2 capsules was numerically greater in fasted monkeys.

[6] = test system: T1, human CYP450 enzymes (seven isozymes tested); experiment: CYP450 inhibition, seven isozymes overall; type: biochemical; settings: human, read-out: calculated IC50 values
T1 construct: other: seven isozymes tested

[7] = test system: human CYP450 enzymes; experiment: CYP450 inhibition, seven isozymes overall; type: biochemical; settings: 10 μM, seven isozymes tested
[8] = test system: cynomolgus monkeys; experiment: Hepatotoxicity safety profile, serum biomarkers; type: in vivo; settings: for ALP d28 / ALT d28 / AST d28 / GGT d28: day 28
Protocol: Compound 2 in the vehicle (0.5% methylcellulose, 400 cps) was administered via nasogastric intubation once daily for 28 or 29 consecutive days to 4 groups of cynomolgus monkeys. Each group received one dose level. Dosage levels were 10, 30, 100, and 300 mg/kg/day per group. […] The dosage volume was 10 ml/kg for all groups. Hepatoxicity was measured via the serum biomarkers of alanine aminotransferease [ALT], aspartate aminotransferase [AST], alkaline phosphastase [ALP] and gamma-glutamyl transferase [GGT] which represent hepatotoxicity or bile duct injury.

[9] = molecular target: CYP2C8 (Homo sapiens, UniProt P10632); experiment: in vitro; settings: probe Amodiaquine
Chain of CYP2C8 (P10632 whole entry): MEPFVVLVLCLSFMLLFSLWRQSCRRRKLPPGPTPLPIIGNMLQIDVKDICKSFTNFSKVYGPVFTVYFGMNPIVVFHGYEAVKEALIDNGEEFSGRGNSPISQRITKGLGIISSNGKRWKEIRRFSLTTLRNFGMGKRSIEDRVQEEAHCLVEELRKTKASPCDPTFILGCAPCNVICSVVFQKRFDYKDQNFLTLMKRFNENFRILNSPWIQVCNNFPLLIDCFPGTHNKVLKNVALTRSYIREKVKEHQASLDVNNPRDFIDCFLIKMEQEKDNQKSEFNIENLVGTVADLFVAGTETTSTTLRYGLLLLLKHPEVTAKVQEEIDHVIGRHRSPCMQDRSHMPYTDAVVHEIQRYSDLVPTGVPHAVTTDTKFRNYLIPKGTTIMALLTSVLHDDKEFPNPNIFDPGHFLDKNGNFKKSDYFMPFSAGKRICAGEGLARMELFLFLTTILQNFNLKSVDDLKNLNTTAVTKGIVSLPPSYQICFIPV

[10] = molecular target: CYP2C19 (Homo sapiens, UniProt P33261); experiment: in vitro; settings: probe Mephenytoin
Chain of CYP2C19 (P33261 whole entry): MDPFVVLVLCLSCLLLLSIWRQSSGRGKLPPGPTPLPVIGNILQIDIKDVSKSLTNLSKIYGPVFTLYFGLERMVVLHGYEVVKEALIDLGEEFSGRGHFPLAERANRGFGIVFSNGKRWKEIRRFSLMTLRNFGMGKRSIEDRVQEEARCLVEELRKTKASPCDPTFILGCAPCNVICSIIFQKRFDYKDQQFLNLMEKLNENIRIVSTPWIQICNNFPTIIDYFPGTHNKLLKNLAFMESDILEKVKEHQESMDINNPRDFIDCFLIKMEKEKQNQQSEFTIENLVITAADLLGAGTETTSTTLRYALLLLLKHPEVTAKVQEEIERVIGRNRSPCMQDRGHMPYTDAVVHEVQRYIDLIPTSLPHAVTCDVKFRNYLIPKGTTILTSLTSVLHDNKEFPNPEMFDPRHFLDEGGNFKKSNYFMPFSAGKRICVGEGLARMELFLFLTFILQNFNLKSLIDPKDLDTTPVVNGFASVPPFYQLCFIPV

[11] = molecular target: CYP2D6 (Homo sapiens, UniProt P10635); experiment: in vitro; settings: probe Dextromethorphan
Chain of CYP2D6 (P10635 whole entry): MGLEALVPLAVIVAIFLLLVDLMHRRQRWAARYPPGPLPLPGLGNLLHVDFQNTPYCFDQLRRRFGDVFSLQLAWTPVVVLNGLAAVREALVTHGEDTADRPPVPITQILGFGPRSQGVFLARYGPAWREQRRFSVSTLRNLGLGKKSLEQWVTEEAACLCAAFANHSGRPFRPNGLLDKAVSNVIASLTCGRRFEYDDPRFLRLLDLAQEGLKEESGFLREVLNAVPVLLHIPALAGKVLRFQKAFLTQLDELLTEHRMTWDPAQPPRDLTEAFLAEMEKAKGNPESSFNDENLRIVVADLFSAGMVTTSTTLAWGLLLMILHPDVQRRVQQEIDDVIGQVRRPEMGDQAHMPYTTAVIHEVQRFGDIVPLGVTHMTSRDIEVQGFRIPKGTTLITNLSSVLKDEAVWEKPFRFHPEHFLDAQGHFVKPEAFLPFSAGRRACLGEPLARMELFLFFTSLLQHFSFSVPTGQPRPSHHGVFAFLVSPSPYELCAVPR

C[C@@H](C(=O)Nc1ccnc(-c2cnc(N3CCC[C@H]3C(F)(F)F)nc2)n1)n1cnc2c1c(=O)n(C)c(=O)n2C [Compound 2, (S)-2-(1,3-dimethyl-2,6-dioxo-2,3-dihydro-1H-purin-7(6H)-yl)-N-(2′-((S)-2-(trifluoromethyl)pyrrolidin-1-yl)-[2,5′-bipyrimidin]-4-yl)propanamide]
solubility at 30 h [1]: 200 to 1300 µg/mL (≈ 367 to 2390 µM) | solubility at 30 h [2]: 1190 µg/mL (≈ 2190 µM) | IC50 [3]: 0.0235 ± 0.0064 µM | IC50 [4]: 3.28 ± 0.64 µM | bioavailability ([5]; Capsule (fasted)): 13% | bioavailability ([5]; Capsule (fed)): 10% | bioavailability ([5]; Suspension (fasted)): 7.8% | IC50 [6]: > 10 µM | maximum block of human CYP450 enzymes [7]: up to 37% | ALP d28 ([8]; 10 mg/kg/day nasogastric): 744.0 U/L | ALT d28 ([8]; 10 mg/kg/day nasogastric): 87.0 U/L | AST d28 ([8]; 10 mg/kg/day nasogastric): 126.0 U/L | GGT d28 ([8]; 10 mg/kg/day nasogastric): 64.0 U/L | ALP d28 ([8]; 30 mg/kg/day nasogastric): 461.0 U/L | ALT d28 ([8]; 30 mg/kg/day nasogastric): 50.0 U/L | AST d28 ([8]; 30 mg/kg/day nasogastric): 72.0 U/L | GGT d28 ([8]; 30 mg/kg/day nasogastric): 49.0 U/L | ALP d28 ([8]; 100 mg/kg/day nasogastric): 532.0 U/L | ALT d28 ([8]; 100 mg/kg/day nasogastric): 61.0 U/L | AST d28 ([8]; 100 mg/kg/day nasogastric): 70.0 U/L | GGT d28 ([8]; 100 mg/kg/day nasogastric): 53.7 U/L | ALP d28 ([8]; 300 mg/kg/day nasogastric): 441.0 U/L | ALT d28 ([8]; 300 mg/kg/day nasogastric): 67.0 U/L | AST d28 ([8]; 300 mg/kg/day nasogastric): 134.0 U/L | GGT d28 ([8]; 300 mg/kg/day nasogastric): 54.8 U/L | serum biomarkers of hepatotoxicity (ALT, AST, ALP, GGT) ([8]; cynomolgus monkeys, once daily for 28 or 29 days): did not elevate the serum biomarkers up to and including a dose of 300 mg/kg | inhibition at 10 µM [9]: 3.2% | inhibition at 10 µM [10]: 37.1% | inhibition at 10 µM [11]: 9.5%

Reference: US20170050966A1, “INHIBITING THE TRANSIENT RECEPTOR POTENTIAL A1 ION CHANNEL” (HYDRA BIOSCIENCES, INC., priority 2014, published 2017)
